Data reported in PMC4046646 (Molecular psychiatry, 2013).

Tests used:
LeuT [1] = molecular target: LeuT (Aquifex aeolicus, UniProt O67854, A289M, form not given); experiment: DEER spectroscopy; format: binding; conditions: 200 mM NaCl; 4-fold molar excess of Leu over LeuT
LeuT [2] = molecular target: LeuT (Aquifex aeolicus, UniProt O67854); experiment: DEER spectroscopy; format: binding; conditions: 200 mM NaCl; 4-fold molar excess of Leu over LeuT

SMILES: CC(C)C[C@H](N)C(=O)O [Leu]
- DEER spectroscopy (Q-band, 83 K), ligand-induced conformational change (LeuT [1]): LeuT A289M with Na^+ and Leu bound in the vestibule has a destabilized bound structure
- DEER spectroscopy (Q-band, 83 K), ligand-induced conformational change (LeuT [2]): Subsequent Leu binding resets the closed EL4 conformation in the occluded conformation of the transporter
